Here are results for one molecule from patent US20030229122A1, “Use of methylphenidate compounds to enhance memory” (Sention, Inc., priority 2000, published 2003).

For assay [1], the system named is rats with lesions of the fornix. In words: Inhibitory Avoidance (IA) task in rats with lesions of the fornix (amnesic rats). Format: in vivo, rat. As to conditions: 5 mg/kg, tested one hour after injection. An excerpt: Applicants have previously described an animal model for studying fornix-mediated memory consolidation. See, for example, Taubenfield et al., Supra. The fornix-lesioned animals can be used for drug screening, e.g., to identify dosages of the subject compositions which enhance memory consolidation. The lesioned mammal can have a lesion of the fornix or a related brain structure that disrupts memory consolidation (e.g., perirhinal cortex, amygdala, medial septal nucleus, locus coeruleus, hippocampus, mammillary bodies). Lesions in the mammal can be produced by mechanical or chemical disruption. For example, the fornix lesion can be caused by surgical ablation, electrolytic, neurotoxic and other chemical ablation techniques, or reversible inactivation such as by injection of an anesthetic, e.g., tetrodotoxin or lidocaine, to temporarily arrest activity in the fornix.
In one embodiment, the animal can be a rat. Briefly, the animals are anesthetized, e.g., with intraperitoneal injections of a ketamine-xylazine mixture and positioned in a Kopf stereotaxic instrument. A sagittal incision is made in the scalp and a craniotomy is performed extending 2.0 mm posterior and 3.0 mm lateral from Bregma. […]

For assay [2], the system named is IA memory in the rat. In words: Inhibitory Avoidance (IA) task, retention latency in normal rats. Format: in vivo. Here is the method:
An exemplary passive avoidance test utilizes an apparatus that consists of a lit chamber that can be separated from a dark chamber by a sliding door. At training, the animal is placed in the lit chamber for some period of time, and the door is opened. The animal moves to the dark chamber after a short delay—the latency—that is recorded. Upon entry into the dark chamber, the door is shut closed and a foot shock is delivered. Retention of the experience is determined after various time intervals, e.g., 24 or 48 hours, by repeating the test and recording the latency. The protocol is one of many variants of the passive avoidance procedures (for review, see Rush (1988) Behav Neural Biol 50:255).
The Inhibitory Avoidance (IA) task is a well-studied behavioral paradigm which can provide the researcher with a consistent and long-lasting measure of memory. The paradigm consists of one training trial and one retention trial. Test articles may be administered to the rats either before or after training. Improved memory, as a result of test compound administration, is evident as increased latency on the retention trial. The objective of the following experiments was to investigate the effects of methylphenidate on IA memory in the rat.
In this experiment, rats were injected with three different doses of methylphenidate thirty minutes prior to training on the IA task.
Rats were injected with 5 mg/kg of methylphenidate and trained on the IA task.
In this experiment, the time of drug administration was varied in order to determine the optimal pre-training drug administration time.
This experiment was conducted in order to determine whether the enhanced retention observed in Experiment 2 was long-lasting. Rats received a second retention test one week after the first retention test. No additional training or drug was administered to the animals in the interim period.
In the next experiment, we investigated whether the performance of amnesic rats could be improved by administration of methylphenidate. In this experiment, control rats and rats with lesions of the fornix received injections of either saline or methylphenidate (5 mg/kg), and one hour later, were tested on the IA task.

SMILES strings stand for the structures. Entries after “also recorded” stand apart in the source; their conditions may differ.

For the molecule `COC(=O)C(c1ccccc1)C1CCCCN1` (stereo not drawn) [methylphenidate, methyl α-phenyl-2-piperidineacetate], the “IA performance of fornix lesion rats (FIG. 3)” value in assay [1] is reported as “appeared to improve; also recorded: not significantly different from normal, saline injected animals”. Further, in assay [2] (normal control rats, 5 mg/kg, tested one hour after injection, post hoc p<0.05, 5 mg/kg), the “IA performance of normal rats (FIG. 3)” value is “dramatically enhanced; also recorded: significantly enhanced relative to all other experimental groups”. The “retention on the IA task (FIG. 1)” value in assay [2] (rats, 5 mg/kg injected thirty minutes prior to training) is “improved retention”; in assay [2] (rats, 10 mg/kg injected thirty minutes prior to training), “no effect”; in assay [2] (rats, 15 mg/kg injected thirty minutes prior to training), “no effect”. For the same molecule, in assay [2] (rats, 5 mg/kg, time of administration varied), the “optimal pre-training drug administration time” value is on record as “most effective when administered to the rats one hour prior to training”. Further, the “retention of the IA task, verifying experiment (FIG. 2)” value in assay [2] (rats, 5 mg/kg, unpaired t-test p<0.03) is on record as “significantly improved retention”. For the same molecule, the “long-term retention, second retention test” value in assay [2] (rats, one week after the first retention test, no additional training or drug, t(54)=2.358, p<0.0220) is recorded as “still significantly enhanced”.
